Measured values as given in patent US12478624B2, “Heterocyclic derivatives, pharmaceutical compositions and their use in the treatment or amelioration of cancer” (Tolremo Therapeutics AG, priority 2019, dated 2025).

What was measured:
A375 cells = assay: Assay 1: A375 cells treated with S1152, S1008 and compound, immunofluorescence (sc-365823) signal; format: cell-based; settings: 1 μM S1152 + 0.5 μM S1008, one day
Procedure, shortened: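 A375 cells treated one day with 1 μM S1152, 0.5 μM S1008 and compound dose ranges in DMEM/10% FCS, then fixed, permeabilised and immunostained. Green signal normalised to nuclear counterstain (ethidium-type or DAPI), log ratio fitted by four-parameter regression for EC50.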

OPM-2 = assay: Assay 2: multiple myeloma cellular efficacy, PrestoBlue cell proliferation/survival; format: cell-based; settings: Homo sapiens, 96 h, OPM-2 cells, 4 days
Procedure, shortened: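 Cells seeded at 10000/well and exposed to a compound dose range or vehicle for 4 days, then stained with PrestoBlue for 2 h at 37 °C. Fluorescence was background-subtracted and normalized to vehicle; EC50 came from a four-parameter variable-slope fit against log concentration.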

CBP Bromodomain = target: T1, CBP Bromodomain (Homo sapiens, UniProt Q92793); assay: Assay 3: CBP bromodomain binding assay (TR-FRET)
T1 construct: purchased Cayman chemicals 600850
T1 sequence (Q92793 1085-1192 limits assumed): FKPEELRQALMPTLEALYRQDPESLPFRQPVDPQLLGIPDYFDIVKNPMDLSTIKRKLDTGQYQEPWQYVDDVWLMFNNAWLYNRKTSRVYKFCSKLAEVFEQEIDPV
Protocol: Assay 3 CBP Bromodomain Binding Assay (TR-FRET)
Compounds solutions of 10 mM in DMSO were pre-diluted in DSMO to 25× stock solutions in DMSO. These were then diluted down to 4× in assay buffer. A dilution series in assay buffer was performed keeping the DMSO concentration stable. 5 μl compound in assay buffer was transferred into the assay plate (provided by assay kit) and the TR-FRET assay Cayman chemicals; 600850) was performed using the manufactor's instructions. After 1 hour incubation at room temperature in the darks, assay plates were read in a Tecan M1000 plate reader or a Tecan Spaks reader using the TR-FRET mode (top read; excitation 340 nm bandwidth […]; emission 620 nm bandwidth […]; gain optimal determined for the first well, number of flashes: 5; flash frequency 100 Hz; integration time: 500 μs, lag time: 100 μs, room temperature). The TR-FRET ratio was calculated by deviding 670 nm emission by 620 nm emission. Values were log transformed and non-linear regression with variable slope (4 parameters) was used to fit values to a dose-response curve to evaluate EC50 values.

Measured: EC50

CC(=O)N1C[C@H](c2nc(Nc3ccnc(F)c3)cc(-c3cccnc3)n2)CC[C@@H]1C [Compound 00104, 1-((2S,5R)-5-(4-((2-fluoropyridin-4-yl)amino)-6-(pyridin-3-yl)pyrimidin-2-yl)-2-methylpiperidin-1-yl)ethan-1-one]
< 0.2 µM: all assays above

CC(=O)N1C[C@H](c2nc(Nc3ccnc(F)c3)cc(-c3cnccn3)n2)CC[C@@H]1C [Compound 00128, 1-((2S,5R)-5-(4-((2-fluoropyridin-4-yl)amino)-6-(pyrazin-2-yl)pyrimidin-2-yl)-2-methylpiperidin-1-yl)ethan-1-one]
< 0.2 µM: all assays above
